Reference: US20120082647A1, “INTERFERON-BETA FOR USE AS MONOTHERAPY OR IN COMBINATION WITH OTHER CANCER THERAPIES” (priority 2010, published 2012)

Tests used:
[1] = tested on: SK-MEL-1 human melanoma cells; test: SK-MEL-1 melanoma tumor volume in nude mice; format: in vivo; conditions: SK-MEL-1 tumor volume; PD325901 15 mg/kg QD 14 days, pegylated Interferon-beta-1a 10 μg QW 3 weeks
Method: Tumors were measured every 3 days using calipers and volume was calculated for a prolate spheroid, defined as:
where L equals the major diameter and W equals the minor diameter.

[2] = tested on: ERK phosphorylation; test: ERK phosphorylation in SK-MEL-1 tumors (western blot); format: in vivo, nude mice; conditions: SK-MEL-1 tumors removed 8 hours post last dose; FIG. 4
Method: Athymic nude mice were inoculated with 2×10^6 SK-MEL-1 human melanoma cells (1 injection in flank; 1 injection per mouse) and 100-200 cubic mm tumors were established. pegylated IFN β-1a was provided in 20 mM acetic acid/sodium acetate at a pH of 4.8 and 150 mM arginine/HCl containing 15 mg/mL human serum albumin (HSA). HSA was used as a control and administered at a concentration of 15 mg/mL. Mice (10 per group) were randomized and treated with either:
i. PEG400 (once a day (QD) for 14 days) and pegylated Interferon-beta-1a (10 μg once a week (QW) for 3 weeks); ii. PD325901 (15 mg/kg once a day (QD) for 14 days) and pegylated Interferon-beta-1a (10 μg once a week (QW) for 3 weeks); iii. PEG400 (once a day (QD) for 14 days) and (HSA) (QW for 3 weeks); iv. PD325901 (15 mg/kg once a day (QD) for 14 days) and HSA (QW for 3 weeks).
Tumors were measured every 3 days using calipers and volume was calculated for a prolate spheroid. The identity of the vehicle control for pegylated interferon-beta-1a vehicle (HSA) and pegylated Interferon-beta-1a was blinded. Tumors were removed 8 hours post last dose and frozen for ERK phosphorylation analysis.

[3] = tested on: MDA-MB-231 breast carcinoma cells; test: MDA-MB-231 breast carcinoma tumor volume in SCID mice; format: in vivo; conditions: paclitaxel 25 mg/kg I.P. q4d x 3, pegylated interferon beta 1a 0.4 to 1.6 mg/kg SC BIW
Method: 8-10 week old SCID mice from Charles River Labs were inoculated subcutaneously with 5×10^6 MDA-MB-231 breast carcinoma cells with 50% matrigel in the flank region. When the average tumor volumes reached approximately 200 mm^3 the tumor-bearing mice were randomized to treatment groups. Pegylated IFN-1a was provided in 20 mM acetic acid/sodium acetate at a pH of 4.8 and 150 mM arginine/HCl (4.8A buffer). Paclitaxel was provided in a Cremophor Ethanol Saline mixture (CES buffer).

Row | Compound | difference between estimates of least square means between treatment groups and vehicle control group [1] | ERK phosphorylation compared to vehicle and pegylated Interferon-beta-1a treated groups [2] | inhibition of tumor growth, single agent versus vehicle controls [3]
1 | O=C(NOC[C@H](O)CO)c1ccc(F)c(F)c1Nc1ccc(I)cc1F [PD325901, N-[(2R)-2,3-dihydroxypropoxy]-3,4-difluoro-2-[(2-fluoro-4-iodo-phenyl)amino]benzamide] | −4.52 | significant inhibition of ERK phosphorylation | 
2 | CC(=O)O[C@H]1C(=O)[C@@]2(C)[C@H]([C@H](OC(=O)c3ccccc3)[C@]3(O)C[C@H](OC(=O)[C@H](O)[C@@H](NC(=O)c4ccccc4)c4ccccc4)C(C)=C1C3(C)C)[C@]1(OC(C)=O)CO[C@@H]1C[C@@H]2O [paclitaxel] |  |  | greater inhibition of tumor growth compared to mice treated with vehicle controls
